Measured values reported in ChEMBL document CHEMBL5247581, “Design, synthesis and biological evaluation of new quinazolinone-benzopyran-indole hybrid compounds promoting osteogenesis through BMP2 upregulation” (Eur J Med Chem, 2022).
Calls of active or inactive are those of the source. The calls are words filed in the database; no cut-off is given here.

Experiments:
[1] = test system: Calvarial osteoblast; test: Induction of osteogenesis in mouse Osteoblast cells assessed as ALP activity at 0.001 to 100 uM measured for 24 to 48 hrs; assay type: functional; conditions: dose 0.001-100 µM, time 24-48 hrs
[2] = test system: Calvarial osteoblast; test: Induction of osteogenesis in mouse Osteoblast cells assessed as fold increase in BMP2 gene expression at 100 pM by qRT-PCR analysis; assay type: functional
[3] = test system: Calvarial osteoblast; test: Induction of osteogenesis in mouse Osteoblast cells assessed as ALP activity at 0.001 to 100 uM measured for 48 hrs; assay type: functional, cell-based; conditions: dose 0.001-100 µM
[4] = test system: Calvarial osteoblast; test: Induction of osteogenesis in mouse Osteoblast cells assessed as ALP activity at 0.001 to 100 uM measured for 24 hrs; assay type: functional, cell-based; conditions: dose 0.001-100 µM
[5] = test system: Calvarial osteoblast; test: Induction of osteogenesis in mouse Osteoblast cells assessed as ALP activity at 0.001 to 1 uM measured for 48 hrs; assay type: functional, cell-based; conditions: dose 0.001-1 µM
[6] = test system: Calvarial osteoblast; test: Induction of osteogenesis in mouse Osteoblast cells assessed as ALP activity at 100 pM measured for 24 to 48 hrs; assay type: functional, cell-based; conditions: time 24-48 hrs
[7] = test system: Calvarial osteoblast; test: Cytotoxicity against mouse Osteoblast cells assessed as reduction in cell viability at 0.000001 to 1 uM measured for 24 to 48 hrs by MTT assay; assay type: toxicity, cell-based; conditions: dose lower 1e-06 µM, time lower 24 hrs, dose upper 1 µM, time upper 48 hrs
[8] = test system: Calvarial osteoblast; test: Cytotoxicity against mouse Osteoblast cells assessed as reduction in cell viability at 100 uM measured for 24 to 48 hrs by MTT assay; assay type: toxicity, cell-based; conditions: time 24-48 hrs
[9] = test system: Calvarial osteoblast; test: Induction of osteoblast differentiation in mouse calvarial osteoblasts cells assessed as ALP activity at 1 to 10000 pM measured for 7 days; assay type: functional, cell-based; conditions: dose 1-10000 pM, time 7.0 day
[10] = Induction of osteoblast mineralization in mouse Bone marrow cells assessed as increase in mineralized nodule formation at 10 nM replaced with media every 48 hrs for 21 days by Alizarin Red staining-based microscopic analysis; assay type: functional, Bone marrow cell; conditions: time 21 day
[11] = Induction of osteoblast mineralization in mouse Bone marrow cells assessed as increase in mineralized nodule formation at 100 pM replaced with media every 48 hrs for 21 days by Alizarin Red staining-based microscopic analysis; assay type: functional, Bone marrow cell; conditions: time 21 day
[12] = test system: Calvarial osteoblast; test: Induction of osteogenesis in mouse Osteoblast cells assessed as fold increase in RUNX2 gene expression at 1 pM by qRT-PCR analysis; assay type: functional
[13] = test system: Calvarial osteoblast; test: Induction of osteogenesis in mouse Osteoblast cells assessed as fold increase in mRNA expression at 1 to 10000 pM by qRT-PCR analysis; assay type: functional; conditions: dose 1-10000 pM
[14] = test system: Calvarial osteoblast; test: Induction of osteogenesis in mouse Osteoblast cells assessed as fold increase in ALP expression at 100 pM by qRT-PCR analysis; assay type: functional
[15] = test system: Calvarial osteoblast; test: Induction of osteogenesis in mouse Osteoblast cells assessed as fold increase in BGLAP expression at 1 to 100 pM by qRT-PCR analysis; assay type: functional; conditions: dose 1-100 pM
[16] = test system: Calvarial osteoblast; test: Induction of osteogenesis in mouse Osteoblast cells assessed as fold increase in BGLAP expression at 10 nM by qRT-PCR analysis; assay type: functional
[17] = test system: Calvarial osteoblast; test: Induction of osteoblast differentiation in mouse Osteoblast cells assessed as fold increase in RUNX2 expression at 100 pM by qRT-PCR analysis; assay type: functional
[18] = test system: Calvarial osteoblast; test: Induction of osteoblast differentiation in mouse Osteoblast cells assessed as fold increase in BMP2 expression at 100 pM by qRT-PCR analysis; assay type: functional
[19] = Upregulation of BMP2 expression in mouse Osteoblast cells assessed as fold increase in phosphorylated p38 level measured at 24 hrs by ELISA analysis; assay type: functional, Calvarial osteoblast
[20] = test system: Mus musculus; test: Induction of bone formation in BALB/c mouse model assessed as calvarial bone formation at 1 to 5 mg/kg by double labelling based analysis; assay type: functional, organism-based; conditions: dose 1-5 mg/kg
[21] = test system: Mus musculus; test: Induction of bone formation in BALB/c mouse model assessed as mineralizing surface per bone surface at 1 to 5 mg/kg by double labelling based analysis; assay type: functional, organism-based; conditions: dose 1-5 mg/kg
[22] = test system: Mus musculus; test: Induction of bone formation in BALB/c mouse model assessed as mineral apposition rate at 1 to 5 mg/kg by double labelling based analysis; assay type: functional, organism-based; conditions: dose 1-5 mg/kg
[23] = test system: Mus musculus; test: Induction of bone formation in BALB/c mouse model assessed as bone formation rate/bone surface at 1 to 5 mg/kg by double labelling based analysis; assay type: functional, organism-based; conditions: dose 1-5 mg/kg
[24] = test system: Mus musculus; test: Induction of bone formation in BALB/c mouse model assessed as morphological architecture at 1 mg/kg by histopathological analysis; assay type: functional, organism-based
[25] = test system: Mus musculus; test: Induction of bone formation in BALB/c mouse model assessed as increase in intercortical distance at 1 mg/kg by histopathological analysis; assay type: functional, organism-based
[26] = test system: Mus musculus; test: Induction of osteogenesis in BALB/c mouse assessed as fold increase in RUNX2 gene expression at 5 mg/kg, ip by qRT-PCR analysis; assay type: functional
[27] = test system: Mus musculus; test: Induction of osteogenesis in BALB/c mouse assessed as increase in RUNX2 gene expression at 5 mg/kg, ip by qRT-PCR analysis; assay type: functional, organism-based
[28] = test system: Mus musculus; test: Induction of osteogenesis in BALB/c mouse assessed as increase in BMP2 gene expression at 5 mg/kg, ip by qRT-PCR analysis; assay type: functional, organism-based
[29] = test system: Mus musculus; test: Induction of osteogenesis in BALB/c mouse assessed as increase in BGLAP gene expression at 5 mg/kg, ip by qRT-PCR analysis; assay type: functional, organism-based
[30] = test system: Mus musculus; test: Induction of osteogenesis in BALB/c mouse assessed as increase in Col1a1 gene expression at 5 mg/kg, ip by qRT-PCR analysis; assay type: functional, organism-based
[31] = test system: Mus musculus; test: Induction of osteogenesis in BALB/c mouse assessed as fold increase in BMP2 gene expression at 5 mg/kg, ip by qRT-PCR analysis; assay type: functional
[32] = test system: Mus musculus; test: Induction of osteogenesis in BALB/c mouse assessed as fold increase in BGLAP gene expression at 5 mg/kg, ip by qRT-PCR analysis; assay type: functional
[33] = test system: Mus musculus; test: Induction of osteogenesis in BALB/c mouse assessed as fold increase in Col1a1 gene expression at 5 mg/kg, ip by qRT-PCR analysis; assay type: functional

For `CCn1c(-c2cc(C)c3c(c2)C(c2c(C)[nH]c4ccccc24)C(C#N)=C(N)O3)nc2ccccc2c1=O` (stereo not drawn), the Activity [1] was 50%, the “fold change (FC)” value [2] was 3 and the Activity [3] was “Active”. The Activity [4] was “inactive”, the Activity [5] was “Active” and the Activity [6] was “Active”. For the same molecule, the Activity [7] was “Non-Toxic”, the Activity [8] was “Toxic” and the Activity [9] was “Active”. The Activity [10] was 50%, the Activity [11] was 30% and the “fold change (FC)” value [12] was 2. The “fold change (FC)” value [13] was 2, the “fold change (FC)” value [14] was 3 and the “fold change (FC)” value [15] was 2. For the same molecule, the “fold change (FC)” value [16] was 4, the “fold change (FC)” value [17] was 2.7 and the “fold change (FC)” value [18] was 2.3. The “fold change (FC)” value [19] was 1.5, the Activity [20] was “Active” and the Activity [21] was “Active”. For the same molecule, the Activity [22] was “Active”, the Activity [23] was “Active” and the Activity [24] was “Active”. The Activity [25] was “Active”, the “fold change (FC)” value [26] was 11 and the Activity [27] was “Active”. The Activity [28] was “Active”, the Activity [29] was “Active” and the Activity [30] was “Active”. For the same molecule, the “fold change (FC)” value [31] was 6, the “fold change (FC)” value [32] was 7 and the “fold change (FC)” value [33] was 10.
